Consider two compounds from paper PMC3733996 (Bioorganic & medicinal chemistry letters, 2013).

The structures appear in SMILES notation.

This experiment deals with serotonin transporter (SERT) (Rattus norvegicus, UniProt P31652). The experiment can be described thus: Displacement of [3H]citalopram from serotonin transporter in rat brain tissue. Format: binding. Particulars: ratio of Ki DAT / Ki SERT. Background: In a radioligand displacement assay an active substance lowers the binding of a labelled ligand.
serotonin transporter (SERT), sequence (P31652 whole entry): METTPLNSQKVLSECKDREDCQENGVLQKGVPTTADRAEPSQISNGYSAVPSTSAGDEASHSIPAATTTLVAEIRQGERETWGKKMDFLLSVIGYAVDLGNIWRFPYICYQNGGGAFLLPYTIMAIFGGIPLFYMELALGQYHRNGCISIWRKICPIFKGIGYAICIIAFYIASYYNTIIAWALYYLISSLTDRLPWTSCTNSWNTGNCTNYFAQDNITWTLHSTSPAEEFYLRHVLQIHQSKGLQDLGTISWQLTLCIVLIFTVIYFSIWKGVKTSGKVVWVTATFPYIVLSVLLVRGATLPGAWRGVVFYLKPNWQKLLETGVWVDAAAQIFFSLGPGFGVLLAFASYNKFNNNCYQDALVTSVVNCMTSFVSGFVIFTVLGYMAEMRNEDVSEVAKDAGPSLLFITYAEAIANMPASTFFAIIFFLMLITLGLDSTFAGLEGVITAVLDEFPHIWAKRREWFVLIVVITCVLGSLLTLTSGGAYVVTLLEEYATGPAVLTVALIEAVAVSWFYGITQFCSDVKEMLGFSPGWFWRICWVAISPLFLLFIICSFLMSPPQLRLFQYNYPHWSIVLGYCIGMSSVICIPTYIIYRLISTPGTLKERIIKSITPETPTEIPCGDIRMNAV

Turning to `Cl.Clc1ccc(COC2(c3ccc(Cl)cc3)CNC2)cc1` [6e], the DAT/SERT is given as 1,100.
In the case of `Cl.Clc1ccc(COC2(c3ccc(Cl)c(Cl)c3)CNC2)cc1` [6h], the DAT/SERT is given as 1,000.
